Where two headings read alike, the source gives them in different places.
Assays:
[1] = tested on: Hela cervical cancer cell line; assay: In vitro proliferation inhibition of Hela cervical cancer cell line (MTT method); format: cell-based; conditions: for IC50: Hela cervical cancer cell line
Protocol: Evaluation of In Vitro Antitumor Activity of Hela Cervical Cancer Tumor Cell Lines with Compounds (MTT Method)
The cells were cultured in RPMI1640 medium containing 200 mL/L fetal bovine serum so that the cells were kept at logarithmic growth. The cells were inoculated to 96-well plate, with a density of 4˜8×10^4/ml, 37° C., and pre-cultured for 24 hours with added drugs. The drugs were set at 6 concentrations, each has 3 holes. After 48 hours of consequent effect, the nutrient solution was then removed and the cells were left for air-drying. Each hole was then added with cold 500 g/L trichloroacetic acid (TCA) 50 μL (final concentration of 100 g/L). After setting for 60 minutes, it was then rinsed for 4-5 times with ionized water and dried. Each hole then was added with 4 g/L SRB 100 μL left for 30 mins. Then it was rinsed with 10 mL/L acetic acid for 4 times, dried. Then 10 mmol Tris-base 200 μL per hole was added, then shaked and mixed, subsequently, oscillating on the plate oscillator for 5 min. The enzyme-linked immunoassay was used to determine the A value. To calibrate, a blank control was used, with a wavelength of 490 nm. Tumor inhibition rate (%)=(Average A value of the control cell hole−Average A value of the drugged hole A)/Average A value of the control cell hole×100%. The positive control cell holes were CA4, CB1, and CB1N. To calculate the IC50 value, the Logit method was used according to the cell growth inhibition rate of different concentrations of the drug.

[2] = tested on: human gastric cancer cell MGC-803; assay: In vitro antitumor activity on tumor cell lines (CCK-8 method), MGC-803; format: cell-based; conditions: MGC-803, 72 hours
Protocol: (§1) Evaluation of In Vitro Antitumor Activity of Compounds on Multiple Tumor Cell Lines (CCK-8 Method)
(§2) Take the living cells with more than 90% cells for testing. The cell proliferation inhibition test was performed using the EnoGeneCell™ Counting Kit-8 (CK-8) cell viability test kit. The cell was digested, counted and prepared into a cell suspension with a concentration of 1×10^5/mL. 100 μL cell suspension (1×10^4 cells per hole) was added to each hole in the 96-well plate. The 96-well plate was cultured in a 37° C., 5% CO2 incubator for 24 hours. With every hole added with 100 μL respective drugged cultured medium, control groups were set up, including negative control group, solvent control group, and positive control group. Each group has 5 holes. The 96-well plates were cultured at 37° C., in 5% CO2 incubator for 72 hours. Afterward, 10 μL CCK-8 solution was added to each hole, and the culture plate was incubated in the incubator for 4 hours, and the OD value at 450 nm was determined by enzyme labeling instrument. The inhibition rate and IC50 value of these compounds on tumor cells such as human gastric cancer cell MGC-803, human liver cancer cell HepG2, human lung cancer cell A549 and human breast cancer cell MDA-MB-231 were calculated.

[3] = tested on: human liver cancer cell HepG2; assay: In vitro antitumor activity on tumor cell lines (CCK-8 method), HepG2; format: cell-based; conditions: HepG2, 72 hours
Protocol: as §1, §2

[4] = tested on: human lung cancer cell A549; assay: In vitro antitumor activity on tumor cell lines (CCK-8 method), A549; format: cell-based; conditions: A549, 72 hours
Protocol: as §1, §2

[5] = tested on: human breast cancer cell MDA-MB-231; assay: In vitro antitumor activity on tumor cell lines (CCK-8 method), MDA-MB-231; format: cell-based; conditions: MDA-MB-231, 72 hours
Protocol: as §1, §2

[6] = tested on: gastric cancer MGC-803 transplanted tumor; assay: Antitumor rate of oral administration in mice with MGC-803 transplanted tumor; format: in vivo; conditions: for Tumor inhibition rate (%): d0-d12 every 2 days, 7 times, tumor weight; for tumor size course: about 8 days after administration
Protocol: Antitumor rate of oral administration of the compound towards MGC-803 mice with transplanted tumor
After 1 week of adaptation, the mice were inoculated with gastric cancer MGC-803 tumor tissue subcutaneously. After the tumor grew for 100-300 mm^3, the animals were randomly grouped. For the drug group, each group of each compound had 6 mice, and 12 mice were in the control group. The intragastric administration was employed and the dosage of Ii, Ij, Ik and Il was 25 and 50 mg/kg. The positive control was CA4, the administration time was d0, d2, d4, d6, d8, d10, d12 days, 7 times in total. The tumor size was measured 3 times per week, together with mice weight. The mice were executed 14 days after inoculation and the tumor mass was taken and measured for its weight. The tumor inhibition rate was calculated as tumor weight inhibition rate, and the formula is tumor weight inhibition rate %=(1-treatment group average tumor weight/control group average tumor weight)×100%.

in vivo = conditions: both, Kunming, mouse, po
Protocol: (§3) Acute Toxicity Test of Single Gastric Administration in Mice
(§4) Kunming mice (weight 17-22 g, equal male and female) were randomly grouped according to body weight, with 10 mice maximum per dose group in the experiment. […] Given by single intraperitoneal injection and a single intragastric injection, observations were done after 0.25 h, 0.5 h, 1 h, 2 h, 4 h, and 24 h respectively. The mortality rate was recorded. Afterward, the groups were observed once everyday, and the mortality rate was recorded for 14 days. On day 15, the living mice were sacrificed for pathological dissection.

[7] = single intragastric administration, mice
Protocol: as §3, §4

[8] = Homo sapiens, 48 hours drug exposure, read-out: IC50
[9] = Homo sapiens, read-out: IC50 values, Hela proliferation inhibition
[10] = 48 hours drug exposure, read-out: IC50

| SMILES | IC50 [1, 8] [µM] | IC50 ([2]; Homo sapiens) [µM] | IC50 ([3]; Homo sapiens) [µM] | IC50 ([4]; Homo sapiens) [µM] | IC50 ([5]; Homo sapiens) [µM] | further results |
| --- | --- | --- | --- | --- | --- | --- |
| COc1ccc(C=Cc2cc(OC)c(OC)c(OC)c2)cc1NC(=O)CCn1cc(F)c(=O)[nH]c1=O [Compound Ic, 3-(5-fluoro-2,4-dioxo-3,4-dihydropyrimidin-1(2H)-yl)-N-(5-(3,4,5-trimethoxystyryl)-2-methoxyphenyl)-propanamide] | 0.029 | 48.5 | 150 | 57.9 | 122 | proliferation inhibitory activity on Hela compared to 5-fluorouracil ([1]; ratio to 5-fluorouracil): 4 times; proliferation inhibitory activity on Hela compared to CA4 ([1]; ratio to CA4): 14 times |
| COc1ccc(/C=C\c2cc(OC)c(OC)c(OC)c2)cc1OC(=O)CCn1cc(F)c(=O)[nH]c1=O [Compound Ik, (Z)-5-(3,4,5-trimethoxystyryl)-2-methoxyphenyl-3-(5-fluoro-2,4-dioxo-3,4-dihydropyrimidin-1(2H)-yl)propanoate] | 0.0296 | < 0.0003 | 7.33 | < 0.0003 | 80.7 | Tumor inhibition rate (%) ([6]; 25 mg/kg intragastric): 48%; Tumor inhibition rate (%) ([6]; 50 mg/kg intragastric): 75%; tumor size course [6]: tendency to shrink; LD50 at 14 days (in vivo): > 1000 mg/kg; LD50 [7]: 1185 mg/kg |
| COc1ccc(/C=C\c2cc(OC)c(OC)c(OC)c2)cc1O [CA4, combretastatin A-4, reference compound] | 0.4 | 0.0206 | 1280 | 0.00254 | 0.0033 | IC50 [1, 9]: 0.4 µM; LD50 (in vivo): 1280 mg/kg |
| O=c1[nH]cc(F)c(=O)[nH]1 [Compound 5-FU, 5-fluorouracil, reference compound] | 0.113 | 62.5 | 0.004 | 34.9 | 97 | IC50 [1, 9]: 0.113 µM |
| COc1ccc(/C=C\c2cc(OC)c(OC)c(OC)c2)cc1OC(=O)Cn1cc(F)c(=O)[nH]c1=O [Compound Ii, (Z)-2-methoxy-5-(3,4,5-trimethoxystyryl)-phenyl-2-(5-fluoro-2,4-dioxo-3,4-dihydropyrimidin-1(2H)-yl)acetate] | – | – | – | – | – | IC50 [1, 10]: 0.0314 µM; IC50 [2]: < 0.0003 µM; IC50 [3]: 0.0228 µM; IC50 [4]: < 0.0003 µM; IC50 [5]: 0.4 µM; Tumor inhibition rate (%) ([6]; 25 mg/kg intragastric): 62%; Tumor inhibition rate (%) ([6]; 50 mg/kg intragastric): 85%; tumor size course [6]: tendency to shrink; LD50 [7]: 1059 mg/kg |
| COc1ccc(C=Cc2cc(OC)c(OC)c(OC)c2)cc1NC(=O)CCCn1cc(F)c(=O)[nH]c1=O [Compound Ie, 4-(5-fluoro-2,4-dioxo-3,4-dihydropyrimidin-1(2H)-yl)-N-(5-(3,4,5-trimethoxystyryl)-2-methoxyphenyl)-butanamide] | 0.0688 | – | – | – | – | – |
| COc1ccc(/C=C\c2cc(OC)c(OC)c(OC)c2)cc1NC(=O)Cn1cc(F)c(=O)[nH]c1=O [Compound Ia, (Z)-2-(5-fluoro-2,4-dioxo-3,4-dihydropyrimidin-1(2H)-yl)-N-(2-methoxy-5-(3,4,5-trimethoxystyryl)-phenyl)acetamide] | 0.046 | 64.2 | 0.0124 | 27.5 | 112 | – |
| COc1ccc(/C=C\c2cc(OC)c(OC)c(OC)c2)cc1OC(=O)CCCn1cc(F)c(=O)[nH]c1=O [Compound Im, (Z)-2-methoxy-5-(3,4,5-trimethoxystyryl)-phenyl-4-(5-fluoro-2,4-dioxo-3,4-dihydropyrimidin-1(2H)-yl)butanoate] | 0.03 | – | – | – | – | – |
| COc1ccc(CCc2cc(OC)c(OC)c(OC)c2)cc1O [Erianin, reference compound] | – | – | – | – | – | LD50 [7]: 2531 mg/kg |
| COc1ccc(CCc2cc(OC)c(OC)c(OC)c2)cc1NC(=O)CCn1cc(F)c(=O)[nH]c1=O [Compound Id, 3-(5-fluoro-2,4-dioxo-3,4-dihydropyrimidin-1(2H)-yl) N-(5-(3,4,5-trimethoxyphenethyl)-2-methoxyphenyl)-propanamide] | – | – | – | – | – | IC50 [1, 10]: 0.0298 µM; IC50 [2]: 50.6 µM; IC50 [3]: 110 µM; IC50 [4]: 38 µM; IC50 [5]: 70.2 µM |
| COc1ccc(CCc2cc(OC)c(OC)c(OC)c2)cc1OC(=O)Cn1cc(F)c(=O)[nH]c1=O [Compound Ij, 2-methoxy-5-(3,4,5-trimethoxyphenethyl)-phenyl-2-(5-fluoro-2,4-dioxo-3,4-dihydropyrimidin-1(2H)-yl)acetate] | – | – | – | – | – | IC50 [1, 10]: 0.0323 µM; IC50 [2]: < 0.0003 µM; IC50 [3]: 0.141 µM; IC50 [4]: < 0.0003 µM; IC50 [5]: 15.4 µM; Tumor inhibition rate (%) ([6]; 25 mg/kg intragastric): 53%; Tumor inhibition rate (%) ([6]; 50 mg/kg intragastric): 80%; tumor size course [6]: tendency to shrink; LD50 [7]: 1015 mg/kg |

Further lines, with some results ahead:

| IC50 [1, 8] [µM] | IC50 ([2]; Homo sapiens) [µM] | IC50 ([3]; Homo sapiens) [µM] | IC50 ([4]; Homo sapiens) [µM] | IC50 ([5]; Homo sapiens) [µM] | SMILES | further results |
| --- | --- | --- | --- | --- | --- | --- |
| 0.0471 | 25.8 | 39.4 | 59.9 | 60.2 | CCOc1ccc(CCc2cc(OC)c(OC)c(OC)c2)cc1NC(=O)Cn1cc(F)c(=O)[nH]c1=O [Compound Ig, N-(5-(3,4,5-trimethoxyphenethyl)-2-ethoxyphenyl)-2-(5-fluoro-2,4-dioxo-3,4-dihydropyrimidin-1(2H)-yl)acetamide] | – |
| 0.04 | 19.3 | 468 | 4.26 | 102 | CCOc1ccc(CCc2cc(OC)c(OC)c(OC)c2)cc1OC(=O)Cn1cc(F)c(=O)[nH]c1=O [Compound In, 5-(3,4,5-trimethoxyphenethyl)-2-ethoxyphenyl 2-(5-fluoro-2,4-dioxo-3,4-dihydropyrimidin-1(2H)-yl)acetate] | – |
| > 0.37 | 23.2 | 171 | 15.2 | 60.6 | CCOc1ccc(CCc2cc(OC)c(OC)c(OC)c2)cc1NC(=O)CCn1cc(F)c(=O)[nH]c1=O [Compound Ih, N-(5-(3,4,5-trimethoxyphenethyl)-2-ethoxyphenyl)-3-(5-fluoro-2,4-dioxo-3,4-dihydropyrimidin-1(2H)-yl)propanamide] | – |
| 0.0291 | 1.86 | < 0.19 | < 0.19 | 3.21 | COc1ccc(CCc2cc(OC)c(OC)c(OC)c2)cc1NC(=O)Cn1cc(F)c(=O)[nH]c1=O [Compound Ib, 2-(5-fluoro-2,4-dioxo-3,4-dihydropyrimidin-1(2H)-yl)-N-(5-(3,4,5-trimethoxyphenethyl)-2-methoxyphenyl)-acetamide] | – |
| 0.0288 | – | – | – | – | COc1ccc(CCc2cc(OC)c(OC)c(OC)c2)cc1NC(=O)CCCn1cc(F)c(=O)[nH]c1=O [Compound If, 4-(5-fluoro-2,4-dioxo-3,4-dihydropyrimidin-1(2H)-yl)-N-(5-(3,4,5-trimethoxyphenethyl)-2-methoxyphenyl)-butanamide] | – |
| 0.0343 | 0.609 | 0.0017 | 0.0003 | 2.57 | CCOc1ccc(CCc2cc(OC)c(OC)c(OC)c2)cc1OC(=O)CCn1cc(F)c(=O)[nH]c1=O [Compound Io, 5-(3,4,5-trimethoxyphenethyl)-2-ethoxyphenyl-3-(5-fluoro-2,4-dioxo-3,4-dihydropyrimidin-1(2H)-yl)propanoate] | – |

— patent US11279678B2 (SHANGHAI ECUST BIOMEDICINE CO., LTD., priority 2017, dated 2022)
